pIC50: −log10 of the molar value. Read-outs that look alike come from different tables or passages of the source.
Key:
[1] = system: MIA Rat (monosodium iodoacetate-induced osteoarthritis, right knee joint); experiment: Monosodium iodoacetate-induced osteoarthritis in rat model of joint cartilage damage (MIA Rat); type: in vivo; settings: for % I @ 30 mg/kg BID (%) (± SEM): inhibition of loss of hind limb joint function in MIA at Day 14: 30 mg/kg BID oral
Text: One end result of the induction of osteoarthritis in this model, as determined by histologic analysis, is the development of an osteoarthritic condition within the affected joint, as characterized by the loss of Toluidine blue staining and formation of osteophytes. Associated with the histologic changes is a concentration-dependent degradation of joint cartilage, as evidenced by affects on hind-paw weight distribution of the limb containing the affected joint, the presence of increased amounts of proteoglycan or hydroxyproline in the joint upon biochemical analysis, or histopathological analysis of the osteoarthritic lesions.
The invention compounds typically are not effective for relieving joint pain when administered in an acute model, such as the instant MIA Rat model, which has a duration of just 14 or 28 days.
Generally, In the MIA Rat model on Day 0, the hind-paw weight differential between the right arthritic joint and the left healthy joint of male Wistar rats (150 g) are determined with an incapacitance tester, model 2KG (Linton Instrumentation, Norfolk, United Kingdom). The incapacitance tester has a chamber on top with an outwardly sloping front wall that supports a rat's front limbs, and two weight sensing pads, one for each hind paw, that facilitates this determination. Then the rats are anesthetized with isofluorine, and the right, hind leg knee joint is injected with 1.0 mg of mono-iodoacetate (“MIA”) through the infrapatellar ligament. Injection of MIA into the joint results in the inhibition of glycolysis and eventual death of surrounding chondrocytes. The rats are further administered either an invention compound or vehicle (in the instant case, water) daily for 14 days or 28 days.
The invention compound is typically administered at a dose of 30 mg of per kilogram of rat per day (30 mg/kg/day), but may be administered at other doses such as, for example, 10 mg/kg/day, 60 mg/kg/day, 90-mg/kg/day, or 100 mg/kg/day according to the requirements of the invention compound being studied. It is well within the level of ordinary skill in the pharmaceutical arts to determine a proper dosage of an invention compound in this model.
Administration of an invention compound in this model is optionally by oral administration or by intravenous administration via an osmotic pump. After 7 and 14 days for a two week study, or 7, 14, and 28 days for a four week study, the hind-paw weight distribution is again determined. Typically, the animals administered vehicle alone place greater weight on their unaffected left hind paw than on their right hind paw, while animals administered an invention compound show a more normal (i.e., more like a healthy animal) weight distribution between their hind paws. This change in weight distribution was proportional to the degree of joint cartilage damage. Percent inhibition of a change in hind paw joint function is calculated as the percent change in hind-paw weight distribution for treated animals versus control animals. For example, for a two week study, [formula] wherein: ΔWC is the hind-paw weight differential between the healthy left limb and the arthritic limb of the control animal administered vehicle alone, as measured on Day 14; and • ΔWG is the hind-paw weight differential between the healthy left limb and the arthritic limb of the animal administered an invention compound as measured on Day 14.
In order to measure biochemical or histopathological end points in the MIA Rat model, some of the animals in the above study may be sacrificed, and the amounts of free proteoglycan in both the osteoarthritic right knee joint and the contralateral left knee joint may be determined by biochemical analysis. The amount of free proteoglycan in the contralateral left knee joint provides a baseline value for the amount of free proteoglycan in a healthy joint. […]

[2] = Drug plasma half-life assay (DPH-LA) and bioavailability in rat; type: in vivo; settings: male
Procedure: Three fasted male Sprague-Dawley rats are dosed by intravenous infusion via cannula over 5 minutes of 3 mg/kg of invention compound in 1.0 mL saline solution, and the cannulas were each rinsed with 1.0 mL saline solution immediately following infusion. Animals are fed at 4 hours post dose. Blood samples are collected by conventional means in tubes containing ethylenediaminetetraacetic acid (“EDTA”) at Times 0 (predose), 0.083 (end of infusion), 0.25, 0.5, 1, 2, 4, 6, 8, 12, and 24 hours post dose. Plasma is separated from the blood and stored frozen until analyzed by conventional high performance liquid chromatography, whereby 5.0 ng/mL was the lower limit of quantitation.
Three fasted male Wistar rats are dosed by oral gavage with optionally 5 mg/kg, 30 mg/kg, or 300 mg/kg of invention compound. Animals are fed at 4 hours post dose. Blood samples are collected by conventional means in tubes containing EDTA at Times 0 (predose), 0.5, 1, 2, 4, 6, 8, 12, and 24 hours post dose. Plasma is separated from the blood and stored frozen until analyzed.
Mean plasma half-life was determined by thawing and assaying the plasma samples using high performance liquid chromatography by conventional means. A concentration of test compound of 5.0 ng/mL was the lower limit of quantitation.
Plasma half-life was calculated as the time in hours by conventional means. Drug quantitation is done by comparison to standard samples containing known amounts of test compound.
Mean bioavailability for test compound was determined by calculating area under the concentration-time curve (“AUC”) Extrap using conventional methods.

[3] = target: pig alpha-2-delta receptor 2 (A2DR2) (UniProt A0A8W4FF87); experiment: [3H]Gabapentin scintillant proximity A2DR2 binding assay (A2DR2 SPA, Biological Method 5); settings: displacement of [3H]-gabapentin
Procedure: (§1) Recombinant HEK 293 cells expressing pig A2DR1 and A2DR2 subunits were grown under normal cell culture conditions (RPMI-1640 media with 10% FBS, 200 μg G418, and 1% penicillin/streptomycin 1t 37° C. with 5% CO2) until reaching confluency in T-75 flasks, at which time they were harvested. The harvested cells were suspended in ice-cold 5 mM Tris/5 mM ethylenediaminetetraacetic acid (“EDTA”) buffer, pH 7.4 (“TE buffer”) containing phenylmethylsulfonyl fluoride (“PMSF”) (0.1 mM) and Roche Complete Protease Inhibitor Cocktail, and allowed to sit on ice for 30 minutes. The cells were broken by sonication using 20 bursts, 40-50 cycles, and then centrifuged at 3000×g for 10 minutes. The resulting supernatant was transferred to a new tube and centrifuged at 50,000×g for 30 minutes. The resulting pellet was resuspended in 10 mM HEPES buffer, pH 7.4, homogenized, and stored at—80° C. The A2DR1 or A2DR2 membrane protein concentration was determined by the Pierce BCA method using bovine serum albumin (“BSA”) as the standard.
(§2) The [^3H]gabapentin SPA binding assay was performed in Costar 3632 96-well, clear bottom assay plates using Wheatgerm agglutinin beads (Amersham Pharmacia Biotech). Pig A2DR1 or A2DR2 membranes (10-20 μg protein per well) prepared above in Step (1) and SPA beads (0.5 mg per well) were mixed with 30 nM [^3H]gabapentin (52 Ci/mmol; Amersham Pharmacia Biotech) in 10 mM HEPES/10 mM MgSO4 assay buffer, pH 7.4 using KOH. The final well volume was 200 μL and non-specific binding was determined in the presence of 10 μM unlabeled pregabalin. The final mixture containing A2DR1 or A2DR2 membrane protein incubated with SPA beads, test compounds, and [^3H]gabapentin was incubated at room temperature for 15-24 hours, and the plates were then counted on a Wallace Trilux 1450 Microbeta scintillation counter. Step (3): Determination of IC50 values
(§3) Curve fitting and IC50 values were calculated using a four-parameter, non-linear regression equation from GraphPad Prism 3.0 software, while Ki values were determined using the equation of Chang and Prussoff.

[4] = target: pig alpha-2-delta receptor 1 (A2DR1) (Sus scrofa, UniProt A0A287BIN3); experiment: [3H]Gabapentin scintillant proximity A2DR1 binding assay (A2DR1 SPA, Biological Method 5); settings: displacement of [3H]-gabapentin
pig alpha-2-delta receptor 1 (A2DR1), sequence (A0A287BIN3 1-1109): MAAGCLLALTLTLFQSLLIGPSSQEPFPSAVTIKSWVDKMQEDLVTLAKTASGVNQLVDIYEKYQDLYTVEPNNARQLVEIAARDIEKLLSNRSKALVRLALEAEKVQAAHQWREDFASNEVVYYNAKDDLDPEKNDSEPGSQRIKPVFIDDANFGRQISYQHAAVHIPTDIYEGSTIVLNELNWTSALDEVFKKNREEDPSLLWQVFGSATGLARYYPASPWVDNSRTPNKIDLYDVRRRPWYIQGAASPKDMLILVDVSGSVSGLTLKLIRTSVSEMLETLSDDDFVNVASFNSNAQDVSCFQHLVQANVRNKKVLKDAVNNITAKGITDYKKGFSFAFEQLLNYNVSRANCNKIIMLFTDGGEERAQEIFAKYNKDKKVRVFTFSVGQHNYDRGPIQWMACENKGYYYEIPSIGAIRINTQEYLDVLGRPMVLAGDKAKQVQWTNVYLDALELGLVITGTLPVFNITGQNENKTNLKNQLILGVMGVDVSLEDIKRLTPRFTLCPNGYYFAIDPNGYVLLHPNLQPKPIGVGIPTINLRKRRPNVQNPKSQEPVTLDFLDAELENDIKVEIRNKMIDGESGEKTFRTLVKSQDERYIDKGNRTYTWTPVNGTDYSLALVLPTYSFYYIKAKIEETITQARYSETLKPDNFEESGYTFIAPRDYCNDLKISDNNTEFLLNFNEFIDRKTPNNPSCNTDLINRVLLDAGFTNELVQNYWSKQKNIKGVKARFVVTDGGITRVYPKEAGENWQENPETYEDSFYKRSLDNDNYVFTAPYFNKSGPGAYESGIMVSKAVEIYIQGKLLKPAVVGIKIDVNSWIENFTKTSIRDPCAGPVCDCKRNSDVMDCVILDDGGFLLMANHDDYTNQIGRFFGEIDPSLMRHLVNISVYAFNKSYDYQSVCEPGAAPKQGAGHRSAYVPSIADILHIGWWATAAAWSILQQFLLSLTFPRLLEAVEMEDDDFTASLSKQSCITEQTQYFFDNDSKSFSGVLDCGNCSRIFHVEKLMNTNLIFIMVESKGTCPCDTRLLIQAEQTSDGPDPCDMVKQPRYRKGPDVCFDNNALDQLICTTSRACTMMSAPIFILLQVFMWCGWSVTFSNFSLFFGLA
Procedure: as §1, §2, §3

[5] = target: T1, alpha-2-delta receptor 2 (A2DR2) (Homo sapiens, UniProt Q9NY47); experiment: [3H]Gabapentin A2DR2 binding assay (filter, Biological Method 4); settings: displacement of [3H]-gabapentin
T1 construct: expressed in transfected cells; host or cells: HEK 293 (membrane preparation)
T1 sequence (Q9NY47 19-1150): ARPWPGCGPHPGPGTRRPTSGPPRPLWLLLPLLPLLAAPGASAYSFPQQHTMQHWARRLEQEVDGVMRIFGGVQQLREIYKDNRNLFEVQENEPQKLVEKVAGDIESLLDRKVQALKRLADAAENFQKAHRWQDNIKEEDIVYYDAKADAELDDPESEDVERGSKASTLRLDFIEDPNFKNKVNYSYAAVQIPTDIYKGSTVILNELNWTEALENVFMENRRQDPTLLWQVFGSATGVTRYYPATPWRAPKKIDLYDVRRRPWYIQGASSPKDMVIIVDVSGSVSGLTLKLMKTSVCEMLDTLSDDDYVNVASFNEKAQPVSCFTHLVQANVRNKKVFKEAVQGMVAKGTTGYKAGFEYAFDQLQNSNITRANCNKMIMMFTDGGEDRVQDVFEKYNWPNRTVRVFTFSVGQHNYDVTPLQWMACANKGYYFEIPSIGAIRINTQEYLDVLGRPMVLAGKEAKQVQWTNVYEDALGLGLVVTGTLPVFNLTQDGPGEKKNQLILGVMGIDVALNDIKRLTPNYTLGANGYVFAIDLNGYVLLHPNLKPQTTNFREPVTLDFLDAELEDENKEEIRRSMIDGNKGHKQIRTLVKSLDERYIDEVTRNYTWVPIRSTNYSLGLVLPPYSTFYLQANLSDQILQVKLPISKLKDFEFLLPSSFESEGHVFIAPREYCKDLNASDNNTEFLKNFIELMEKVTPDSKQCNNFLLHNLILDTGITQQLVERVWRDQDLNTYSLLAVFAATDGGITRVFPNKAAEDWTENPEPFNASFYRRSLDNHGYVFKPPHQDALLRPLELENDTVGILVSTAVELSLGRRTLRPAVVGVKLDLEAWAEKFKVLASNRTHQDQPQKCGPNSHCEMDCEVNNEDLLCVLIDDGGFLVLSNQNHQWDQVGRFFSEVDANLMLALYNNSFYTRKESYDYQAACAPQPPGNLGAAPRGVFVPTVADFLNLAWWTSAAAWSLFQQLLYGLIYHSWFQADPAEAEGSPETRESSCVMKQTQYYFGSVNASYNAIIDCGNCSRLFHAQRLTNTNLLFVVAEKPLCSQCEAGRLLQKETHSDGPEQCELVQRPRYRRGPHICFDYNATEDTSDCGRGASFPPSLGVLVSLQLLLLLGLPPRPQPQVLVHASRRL
Text: HEK 293 recombinant cells expressing A2DR1 or A2DR2 protein are harvested and washed in phosphate buffered saline (“PBS”). The cells are centrifuged and resuspended in tris(hydroxymethyl)aminomethane-ethylenediaminetetraacetic acid (“Tris-EDTA” or “TE”) buffer containing Roche Complete Protease Inhibitor Cocktail. The cells are homogenized, centrifuged at 3000×g, and the supernatant centrifuged again at 50,000×g. The resulting pellet is resuspended and homogenized in TE. Following determination of A2DR1 or A2DR2 protein concentration, aliquots are stored at −70° C. until the day of testing (membrane preparation may be used for at least 6 months).
In one version, the binding assay is set up in a 96-well format using deep-well polypropylene plates. In a total volume of 500 μL, the following additions are made: 250 μL buffer [[…] N-2-hydroxyethylpiperazine-N′-2-ethanesulfonic acid (“HEPES”), pH 7.4], 25 μL [3H]gabapentin (10 nM final concentration), 200 μL thawed tissue membrane preparation from Step (1) (˜40 μg protein), and 25 μL of test compound at 7 test dilutions (for example, 0.001, 0.01, 0.03, 0.1, 0.3, 1.0, and 10 μM concentrations). Non-specific binding for each plate is determined by the addition of 10 μM of pregabalin instead of test compound in a few of the 96 wells. Following incubation for 45 minutes at 21° C., the contents of the wells are filtered under vacuum onto glass filter/B (“GF/B”) filter mats and then washed 4×1 mL with chilled 50 mM tris(hydroxymethyl)aminomethane (“Tris”) HCl, pH 6.9. The mats are placed into plastic pouches, scintillation cocktail is added, the pouches are sealed, and radioactivity for each sample is counted.
Specific binding values for each concentration are transformed and then analyzed by a 4-parameter nonlinear regression equation provided by Prism graphics software by Graph Pad to determine IC50 values by conventional means.

pIC50 [3]	pIC50 [4]	SMILES	also measured
≤ 5.00	≤ 5.00	CC(C)(C)C1CCC2NC(C(=O)O)CC2C1 (centres unmarked) [Example O8]	–
5.85	6.54	CN(C)CC(C)(C)COC(=O)C1C[C@@H]2CCCC[C@@H]2N1 (some centres unmarked) [Example Y1]	–
5.35	5.89	CCC1CCC2CC(C(=O)O)NC2C1 (centres unmarked) [Example O1]	–
≤ 5.00	5.59	O=C(O)[C@]12C[C@H]1[C@@H]1CCCC[C@@H]1N2 [Example Q1]	–

Continued, compound first:

SMILES	pIC50 [3]	pIC50 [4]	also measured
O=c1[nH]c([C@@H]2C[C@@H]3CCCC[C@@H]3N2)no1 [F1]	–	–	% I (%) (± SEM): inhibition of loss of hind limb joint function in MIA at Day 14 ([1]; via Alzet osmotic pump (footnote 3), Day 14, rat): (ii) 59 ± 9^3%
O=C(O)[C@@H]1C[C@@H]2CCCC[C@@H]2N1 [OHI2CA, (2S,3aS,7aS)-octahydroindole-2-carboxylic acid, reference compound]	6.22	6.96	half-life ([2]; Sprague-Dawley, rat plasma, IV, 3 mg/kg, read-out: Mean T1/2 (converted)): 4.01 h; bioavailability ([2]; Wistar, plasma, po, administered orally, rat (footnote of Table 2), read-out: bioavailability): 72%; half-life ([2]; Wistar, plasma, po, administered orally, rat (footnote of Table 2), read-out: half-life): 4 h; bioavailability ([2]; Wistar, plasma, rat, PO, 5 mg/kg, read-out: Mean Bioavailability): 72%; half-life ([2]; Wistar, rat plasma, PO, 5 mg/kg, read-out: Mean T1/2 (converted)): 3.78 h
CN1[C@H](C(=O)O)C[C@@H]2CCCC[C@@H]21.Cl [Example A1]	≤ 5.00	≤ 5.00	% I @ 30 mg/kg BID (%) (± SEM): inhibition of loss of hind limb joint function in MIA at Day 14 ([1]; 2-week MIA study, Day 14, rat): 59 ± 17%; bioavailability ([2]; Wistar, in vivo, rat, PO, 30 mg/kg, read-out: Mean Bioavailability): 63%; half-life ([2]; Wistar, rat, in vivo, po, 30 mg/kg, rat plasma, PO, 30 mg/kg, read-out: Mean T1/2 (converted)): 25.3 h; half-life ([2]; Wistar, rat, in vivo, po, 300 mg/kg, rat plasma, PO, 300 mg/kg, read-out: Mean T1/2 (converted)): 11.1 h
CN1[C@H](C(=O)O)C[C@@H]2CCCC[C@@H]21 [[2(S),3a(S),7a(S)]-1-methyl-2,3,3a,4,5,6,7,7a-octahydroindole-2-carboxylic acid]	–	–	degree of structural damage to the cartilage ([1]; 30 mg/kg and 10 mg/kg doses, PO BID, 4 weeks post-MIA): significantly decreased; cartilage erosion severity ([1]; 30-mg/kg and 10-mg/kg doses, PO BID, MIA rat): significantly decrease; joint function limitations (differential hind-limb weight bearing) ([1]; PO BID, MIA rat): decrease joint function limitations; joint pain ([1]; all doses (3 to 30 mg/kg PO BID), 4 weeks post-MIA): significantly decreased
O=C(O)C1CC2C(CCCC2C(F)(F)F)N1 (centres unmarked) [Example O10]	≤ 5.00	≤ 5.00	% I @ 10 mg/kg/day (%) (± SEM): inhibition of loss of hind limb joint function in MIA at Day 14 ([1]; 10 mg/kg/day via osmotic pump, 2-week MIA study, Day 14, rat): 0%
CC(C)CN1[C@H](C(=O)O)C[C@@H]2CCCC[C@@H]21 [Example A6]	≤ 5.00	≤ 5.00	–
CS(=O)(=O)NC(=O)[C@@H]1C[C@@H]2CCCC[C@@H]2N1 [Example E1]	≤ 5.00	≤ 5.00	–
COC1CCC2CC(C(=O)O)NC2C1 (centres unmarked) [Example O3]	–	–	pIC50 [5]: 5.65
CCCN1[C@H](C(=O)O)C[C@@H]2CCCC[C@@H]21 [Example A5]	≤ 5.00	≤ 5.00	–
O=c1[nH]c([C@@H]2C[C@@H]3CCCC[C@@H]3N2)no1 [Example F1]	–	–	% I @ 30 mg/kg BID (%) (± SEM): inhibition of loss of hind limb joint function in MIA at Day 14 ([1]; 2-week MIA study, Day 14, rat): (i) 82^2; %; pIC50 [5]: ≤ 5.00
CCN1[C@H](C(=O)O)C[C@@H]2CCCC[C@@H]21 [Example A3]	≤ 5.00	≤ 5.00	–
COCCN1[C@H](C(=O)O)C[C@@H]2CCCC[C@@H]21 [Example A7]	≤ 5.00	≤ 5.00	–
CN1[C@H](C(=O)O)C[C@@H]2CCCC[C@@H]21.Cl [A1]	–	–	bioavailability ([2]; Wistar, in vivo, po, administered orally, rat (footnote of Table 2), read-out: bioavailability): 63%; half-life ([2]; Wistar, rat, in vivo, po, administered orally, rat (footnote of Table 2), read-out: half-life): 10 h

Source: US20050143427A1, “[B]-fused bicyclic proline derivatives and their use for treating arthritic conditions” (priority 2003, published 2005)
